The record followed here is publication PMC9298916, “The Discovery and Structure‐Activity Evaluation of (+)‐Floyocidin B and Synthetic Analogs” (Chemmedchem, 2021).

The test system of data set [1] is M. tuberculosis H37Rv. Nature of the data set: Growth inhibition, M. tuberculosis H37Rv (Middlebrook 7H9, CellTiter-Blue). In kind it is cell-based. The note with it: M. tuberculosis H37Rv (Mtb), 6 days. A general note: Alamar Blue is a resazurin reagent that responds to reducing activity.
Data set [2] relates to E. coli ATCC25922. Description: Micro-broth dilution growth inhibition, E. coli (CAMH). The data set is classed as cell-based. As to conditions: Escherichia coli, 18 h. In general terms: In broth dilution the organism is exposed to a series of concentrations in liquid medium.
Data set [3] concerns E. coli ATCC25922 MHC. Description: Micro-broth dilution growth inhibition, E. coli in CAMH with 44 mM sodium bicarbonate (MHC). In kind it is cell-based. As to conditions: Escherichia coli, ATCC25922, 18 h, E. coli ATCC25922 MHC (CAMH + 44 mM sodium bicarbonate), read-out: MIC.
Data set [4] has as its system P. aeruginosa ATCC27853. Nature of the data set: Micro-broth dilution growth inhibition, P. aeruginosa. The data set is classed as cell-based. The note with it: Pseudomonas aeruginosa, 18 h.
The test system of data set [5] is S. aureus ATCC25923. Description: Micro-broth dilution growth inhibition, S. aureus. In kind it is cell-based. As to conditions: Staphylococcus aureus, 18 h.
The subject of data set [6] is M. catarrhalis ATCC25238I. Nature of the data set: Micro-broth dilution growth inhibition, M. catarrhalis. The data set is classed as cell-based.
The subject of data set [7] is C. albicans FH2173. Description: Micro-broth dilution growth inhibition, C. albicans (ATP quantification). The data set is classed as cell-based. As to conditions: Candida albicans, FH2173, 48 h, read-out: MIC.
Data set [8] can be described thus: physchem. In kind it is physicochemical. As to conditions: for chromatographic logD: pH 7.4, Log D pH 7.4. As to the method:
2.4. Assay descriptions for the profiling of all four stereoisomers of (+)-floyocidin B and (−)-avicennone C,1 the avicennone C-floyocidin B hybrids 35, ent-35, 36 and ent-36 as well as the natural product (+)-floyocidin A.
Determination of logD 7.4
LogD values at pH 7.4 were determined by a standardized HPLC method derived from by Genieser et al.8 The calculation of the logD value for measured compounds is performed by comparison of the retention times with standard compounds of known distribution coefficients between 1 -octanol and water at pH 7.4. […]
8 Krass, J. D., Jastorff, B., and Genieser, H.-G. Anal. Chem. 1997, 69, 2575–2581. […]

A short description of data set [9]: Microsomal stability, human. The data set is classed as in vitro ADME. The note with it: 1 µM compound; for microsomal CLint at 1 µM / half-life at 1 µM: human, pooled liver microsomes, pH 7.4, human liver microsomes 0.5 mg/mL; for half-life at 1 µM: read-out: Microsomal stability t1/2, Human; for Microsomal stability CLint, Human / Microsomal stability t1/2, Human: human liver microsomes 0.5 mg/mL. As to the method:
(§1) 2.4. Assay descriptions for the profiling of all four stereoisomers of (+)-floyocidin B and (−)-avicennone C,1 the avicennone C-floyocidin B hybrids 35, ent-35, 36 and ent-36 as well as the natural product (+)-floyocidin A. […]
(§2) Pooled liver microsomes are purchased. Microsomes are stored at –80 °C prior to use. Microsomes (final protein concentration 0.5 mg/mL), 0.1 M phosphate buffer pH 7.4, and test compound (final substrate concentration 1 µM; final DMSO concentration 0.25%) are preincubated at 37 °C prior to the addition of NADPH (final concentration 1 mM) to initiate the reaction. A minus cofactor control i ncubation is included for each compound tested where 0.1 M phosphate buffer pH 7.4 is added instead of NADPH. Two control compounds are included. All incubations are performed singularly for each test compound. Each compound is incubate d for 0, 5, 15, 30, and 45 min. The control is incubated for 45 min only. The reactions are stopped by transferring incubate into acetonitrile at the appropriat e time points, in a 1:3 ratio. The termination plates are centrifuged at 3,000 rpm for 20 min at 4 °C to precipitate the protein.
(§3) From a plot of ln peak area ratio (compound peak area/internal standard peak area) against time, the gradient of the line is determined. Subsequently, half -life and intrinsic clearance are calculated using the equations below:
(§4) Elimination rate constant (k) = (- gradient)
(§5) Intrinsic clearance (CL )(µL/min/mg protein) = V x 0.693 […]
(§6) where V = Incubation volume (µL)/Microsomal protein (mg)
(§7) Relevant control compounds are assessed, ensuring intrinsic clearance values fall within the specified limits (if available). […]
(In general: Microsomes from liver hold many membrane-bound enzymes, among them those of drug oxidation.)

Data set [10] is described as follows: Microsomal stability, mouse. In kind it is in vitro ADME. The note with it: 1 µM compound; for Microsomal stability CLint, Mouse / Microsomal stability t1/2, Mouse: mouse liver microsomes 0.5 mg/mL. As to the method: as §1, §2, §3, §4, §5, §6, §7
Data set [11] relates to THP1 cells. Nature of the data set: Cytotoxicity on THP1 cells (CellTiterGlo). The data set is classed as cell-based. The note with it: for Cytotoxicity TC50 THP1: THP1 cells, 40 h. As to the method: (§8) Cytotoxicity on THP1 and HepG2 cells
(§9) After 4 hours of HepG2 cell line (provided by ATCC) plating at 2.500 cells /well in 384-w plates, compounds were added to the cells. After an incubation at 37 °C for 40 h, the CellTiterGlo assay (provided by Promega) was performed.
(§10) Luminescence measurement is related to the cell viability. Compound activity is determined by using the control wells with no treatment as control (100% of growth). The assay was performed identically with THP1 cells. All incubations were […]

Data set [12] deals with HepG2 cells. Description: Cytotoxicity on HepG2 cells (CellTiterGlo). In kind it is cell-based. As to conditions: 40 h. As to the method:
as §8, §9, §10

A short description of data set [13]: Cellular permeability assay utilizing Caco2 cell line. The note with it: human.
Data set [14] relates to Caco-2 cells. Described as above. The note with it: 10 µM, 120 min.
The mark [15] stands for this setting: Moraxella catarrhalis, ATCC25238I, read-out: MIC.
Where [16] appears, read: A2B in the presence of elacridar.

Values after ≈ are worked out from the molar mass of the structure shown. Read-outs that look alike come from different tables or passages of the source.

What is called MIC is the least concentration at which growth counts as inhibited. Broadly, the chromatographic logD is a lipophilicity value derived from retention on a column. Higher therefore signals higher lipophilicity. Broadly, the microsomal CLint is a measure of how fast metabolising enzymes remove a compound, apart from limits set by blood flow. For the compound `CCC/C=C/c1ccc2c(c1)C(=O)[C@]1(CC=C(C)C)O[C@@H]1[C@H]2O` [compound 36], the MIC was 9.4 µg/mL (≈ 30.1 µM) in data set [1] (Mycobacterium tuberculosis, 144 h, read-out: MIC); more than 128 µg/mL in [2]; more than 128 µg/mL in data set [3]; more than 128 µg/mL in data set [4]; more than 128 µg/mL in [5]; 8 µg/mL (≈ 25.6 µM) in data set [6] (setting [15]). Also, the MIC in data set [7] is more than 128 µg/mL. Further, the chromatographic logD in data set [8] came out at 4.73. Besides, the microsomal CLint at 1 µM in data set [9] was 39.7 µL/min/mg; in data set [10] (mouse, pooled liver microsomes, pH 7.4, mouse liver microsomes 0.5 mg/mL, read-out: Microsomal stability CLint, Mouse), 259 µL/min/mg. For the same compound, the half-life at 1 µM in data set [9] worked out at 34.9 min; in data set [10] (mouse, pooled liver microsomes, pH 7.4, mouse liver microsomes 0.5 mg/mL, read-out: Microsomal stability t1/2, Mouse), 5.36 min. Also, the “Cytotoxicity relative to 4” value in data set [11] (TC50 in THP‐1 and HepG2 compared with 4) is listed as “three times less cytotoxic than 4”. In addition, the “Cytotoxicity TC50 THP1” value in data set [11] turned out to be 15.1 µM. Also, the “Cytotoxicity TC50 HepG2” value in [12] was 16.1 µM.
Broadly, the Papp is a coefficient for how fast a substance crosses the barrier. For orientation: Papp A→B means how fast a substance crosses the layer from the apical side. A high value points to fast passage. On to `CCCC=Cc1cc2c(cn1)C(O)C1OC1(CC=C(C)C)C2=O` (stereo not drawn) [ent‐4], for which the minimum inhibitory concentration (MIC) was more than 128 µg/mL in data set [2]; more than 128 µg/mL in data set [3]; more than 128 µg/mL in data set [4]; more than 128 µg/mL in data set [5]; 16 µg/mL (≈ 51.1 µM) in data set [6] (setting [15]); more than 128 µg/mL in [7]. The compound also returned a chromatographic logD in [8] of 3.97. The intrinsic clearance (microsomal CLint) at 1 µM in data set [9] stood at 26.9 µL/min/mg. In data set [9], the half-life at 1 µM came to 51.6 min. Moreover, the “Microsomal stability CLint, Mouse” value in [10] is on record as 271 μL/min/mg protein. In [10], the “Microsomal stability t1/2, Mouse” value came to 5.12 min. The “Cytotoxicity TC50 THP1” value in data set [11] worked out at 8.78 µM. Besides, the “Cytotoxicity TC50 HepG2” value in [12] was found to be 5.97 µM. For the same compound, the Papp at 120 min, 10 µM in data set [13] (Caco-2, Caco‐2 permeability Papp +Elacridar, A2B in the presence of elacridar) stood at 4.67 ×10⁻⁶ cm/s. Also, the Papp A→B at 120 min, 10 µM in data set [13] (Caco-2, Caco‐2 permeability Papp A2B, A2B) was 7.35 ×10⁻⁶ cm/s. Besides, the “Caco‐2 permeability recovery +Elacridar” value in data set [14] (setting [16]) is on record as 28.7%; in data set [14] (A2B in the presence of elacridar, listed as ent-4) it was 28.7%. Also, the “Caco‐2 permeability recovery A2B” value in data set [14] and in [14] (listed as ent-4) was 23.4% each time.
In the case of `CCCC=Cc1ccc2c(c1)C(=O)C1(CC=C(C)C)OC1C2O` (stereo not drawn) [ent‐35], the MIC in data set [1] is 9.4 µg/mL (≈ 30.1 µM). Also, in data set [6], the MIC was 32 µg/mL (≈ 102 µM). Moreover, the “Log D pH 7.4” value in data set [8] is 4.72. In data set [9], the “Microsomal stability CLint, Human” value is recorded as 40.5 μL/min/mg protein and the “Microsomal stability t1/2, Human” value stood at 34.3 min. Further, in data set [10], the “Microsomal stability CLint, Mouse” value was determined as 561 μL/min/mg protein and the “Microsomal stability t1/2, Mouse” value was 2.47 min. Further, in data set [11], the “Cytotoxicity TC50 THP1” value is 12.9 µM. Moreover, the “Cytotoxicity TC50 HepG2” value in data set [12] is 14.7 µM. Besides, the “Caco‐2 permeability recovery +Elacridar” value in data set [14] (setting [16]) is “[b] (46.1) %”. Also, the “Caco‐2 permeability recovery +Elacridar” value in data set [14] (A2B in the presence of elacridar, listed as ent-35) is 46.1%. In addition, in data set [14], the “Caco‐2 permeability Papp A2B” value is reported as 162 10^−7 cm s^−1 and the “Caco‐2 permeability recovery A2B” value was found to be 37.2%. Moreover, in data set [14] (listed as ent-35), the “Caco‐2 permeability recovery A2B” value turned out to be 37.2%.
`CCCC=Cc1ccc2c(c1)C(=O)C1(CC=C(C)C)OC1C2O` (stereo not drawn) [ent‐36] had an MIC in data set [1] of 9.4 µg/mL (≈ 30.1 µM). For the same compound, the “Log D pH 7.4” value in data set [8] is recorded as 4.74. Further, in data set [9], the “Microsomal stability CLint, Human” value came to 29.9 μL/min/mg protein and the “Microsomal stability t1/2, Human” value stood at 46.3 min. Moreover, in data set [10], the “Microsomal stability CLint, Mouse” value was 721 μL/min/mg protein and the “Microsomal stability t1/2, Mouse” value came out at 1.92 min. Besides, the “Cytotoxicity TC50 THP1” value in data set [11] came to 18.2 µM. Further, the “Cytotoxicity TC50 HepG2” value in data set [12] turned out to be 11.3 µM. Besides, in [14] (setting [16]), the “Caco‐2 permeability Papp +Elacridar” value is 12.4 10^−7 cm s^−1 and the “Caco‐2 permeability recovery +Elacridar” value was 12.0%. Besides, the “Caco‐2 permeability recovery +Elacridar” value in [14] (A2B in the presence of elacridar, listed as ent-36) was determined as 12.0%. For the same compound, in [14], the “Caco‐2 permeability Papp A2B” value is listed as 8.55 10^−7 cm s^−1 and the “Caco‐2 permeability recovery A2B” value came out at 14.3%. Moreover, the “Caco‐2 permeability recovery A2B” value in [14] (listed as ent-36) is reported as 14.3%.
